Data published in US20180191012A1, “AQUEOUS […]-BASED REDOX FLOW BATTERIES” (UCHICAGO ARGONNE, LLC, priority 2016, published 2018).

Conditions: 10 mM compound in 0.5 M aqueous NaCl; well-defined, reversible redox waves

## c1cc[n+]2c(c1)-c1cccc[n+]1CC2 [A, N,N′-(ethan-1,2-diyl)-2,2′-bipyridinedium dibromide]
  redox potential versus Ag/AgCl: −0.60 V
